# Laboratory results: PubChem BioAssay AID488827 (NMMLSC, 2010)
# Calls of active or inactive are those of the source.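 The calls were made as follows: active = EC50 at or below 33 µM; inactive = the rest.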
# Test system: S. cerevisiae CIT2-GFP strain, flow cytometry GFP, 3 h
# Test: yeast TOR branch CIT2-GFP reporter modulators – flow cytometry, KU analogs, dose response, SAR follow-up (AID 488827)
row,SMILES,EC50
1,Nc1nc(Nc2ccccc2)nc(Nc2cccc(F)c2)c1[N+](=O)[O-],61.4 µM (inactive)
2,CCOC(=O)CSC1=NC(=O)/C(=C\c2ccc(Cl)cc2)S1,120 µM (inactive)
3,COc1ccc([N+](=O)[O-])c(S(=O)(=O)c2ccc(Cl)cc2)n1,124 µM (inactive)
4,CNc1nc(N)c([N+](=O)[O-])c(NC2CCCCC2)n1,3.75 µM
5,COc1ccc([N+](=O)[O-])c(S(=O)(=O)c2ccccc2)n1,> 300 µM (inactive)
6,CCOC(=O)CS(=O)(=O)c1nc(-c2ccccc2)cc(C(F)(F)F)n1,109 µM (inactive)
7,CCOC(=O)CCS(=O)(=O)c1nc(-c2ccccc2)cc(C(F)(F)F)n1,107 µM (inactive)
8,CSC1=NS(=O)(=O)c2c(C)nn(C)c2S1,294 µM (inactive)
9,Nc1nc(NCCc2ccccc2)nc(Nc2cccc(F)c2)c1[N+](=O)[O-],93.3 µM (inactive)
10,CNc1nc(N)c([N+](=O)[O-])c(Nc2ccc(F)cc2)n1,56.3 µM (inactive)
11,Cc1ccc(/C=C2/C(=O)ON=C2c2ccccc2)o1,39.6 µM (inactive)
12,O=S(=O)(CCN(CCS(=O)(=O)C(F)(F)F)CC1CCCO1)C(F)(F)F (configuration not stated),65.2 µM (inactive)
13,Nc1nc(Nc2cccc(F)c2)nc(Nc2cccc(F)c2)c1[N+](=O)[O-],36.6 µM (inactive)
14,CC(C)(C)C(=O)NC(=S)NNC(=O)c1ccc(-c2ccccc2)cc1,66.9 µM (inactive)
15,CNc1nc(N)c([N+](=O)[O-])c(Nc2ccccc2OC)n1,3.99 µM

# Next, values leading:
row,EC50,SMILES
1,2.52 µM,CNc1nc(N)c([N+](=O)[O-])c(Nc2cccc(F)c2)n1
2,191 µM (inactive),Cc1ccc(S(=O)(=O)c2ncccc2[N+](=O)[O-])cc1
3,87.1 µM (inactive),CN1CCN(C(c2ccc(C(F)(F)F)cc2)c2ccc3cccnc3c2O)CC1 (configuration not stated)
4,19.1 µM,CNc1nc(N)c([N+](=O)[O-])c(Nc2ccccc2)n1
5,81.1 µM (inactive),Clc1ccc(N=c2ssnc2Cl)cc1
6,1.07 µM,CNc1nc(N)c([N+](=O)[O-])c(Nc2cccc(Cl)c2)n1
7,87.4 µM (inactive),O=C(Oc1c(Cl)cc(Cl)c2cccnc12)c1ccco1
8,33 µM (inactive),O=[N+]([O-])c1cc(Cl)c2cccnc2c1O
9,45.9 µM (inactive),Cc1ccc(C(c2cc(Cl)c3cccnc3c2O)N2CCN(C)CC2)cc1 (configuration not stated)
10,251 µM (inactive),O=C(Oc1c(Cl)cc(Cl)c2cccnc12)c1cccc([N+](=O)[O-])c1
11,71 µM (inactive),C/C(=N\NC(=O)c1ccc(C(C)(C)C)cc1)c1ccccn1
12,279 µM (inactive),CN(C)CCCNc1nc(N)c([N+](=O)[O-])c(Nc2cccc(F)c2)n1
13,161 µM (inactive),Cc1c(C(=O)Nc2nc(-c3ccccn3)cs2)oc2ccccc12
14,298 µM (inactive),O=C(Oc1ccnc2cc(Cl)ccc12)N1CCCCCC1
15,166 µM (inactive),Oc1c(I)cc(I)c2cccnc12
16,60.6 µM (inactive),O=C(Nc1nc(-c2ccccn2)cs1)c1cc2ccccc2o1
17,188 µM (inactive),O=C1ON=C(c2ccccc2)/C1=C\c1ccco1
